Paper PMC7464201, “Synthesis and Cytotoxic Activity of Novel C-23-Modified Asiatic Acid Derivatives” (Molecules, 2020)

Assays:
[1] = system: human colon (HCT-116) cancer cell line; assay: MTT cytotoxicity assay, HCT116; assay type: cell-based; conditions: for IC50: Homo sapiens, HCT-116, 72 h, six concentrations, mean ± SD of three independent experiments
Experimental: (§1) To establish a SAR of the C-3 (R2) and C-23 (R1) of the AA derivatives, new compounds were subjected to MTT assays to evaluate their in-vitro antiproliferative activities against ovarian (SKOV-3) and colon (HCT-116) cancer cell lines, the IC50 values (the concentration that inhibits 50% of cell growth) of which are summarized in Table 1. Doxorubicin was used as the positive drug.
(§2) HCT116, SKOV-3, A549, A2780, HepG2, HL-60 and MCF-7 cells were incubated in DMEM with 10% heat-inactivated FBS in a humidified atmosphere of 5.0% CO2 at 37 °C. The in-vitro cytotoxicity of AA derivatives was determined using MTT assay. A 100-μL volume of culture medium at a concentration of 3 × 10^4 cell/mL was added to 96-well plate wells, which were maintained in a humidified atmosphere of 5.0% CO2 at 37 °C. After 24 h, 10 μL solution of AA derivatives and doxorubicin dissolved in DMSO and phophate buffered saline (PBS) and then diluted with DMEM under a concentration gradient, was added in the wells for final concentrations of 100, 10, 1, 0.1, 0.01, 0.001 μM of compounds in HCT116 and SKOV-3 cells and 125, 25, 5, 1, 0.2, 0.04 μM in A549, A2780, HepG2, HL-60 and MCF-7 cells. After 72 h incubation in a humidified atmosphere of 5.0% CO2 at 37 °C, 20 μl MTT solution (5 mg/mL) was added into each well and the cells were incubated. After 4 h, 100 μL HCl aqueous solution (0.01 M) with 10% SDS and 5% isobutanol was added into each well to dissolve the precipitated formazan and the absorbance was read at 570 nm on Thermo Scientific Varioskan Flash plate reader. All IC50 values were averaged from three independent experiments.

[2] = system: human ovarian (SKOV-3) cancer cell line; assay: MTT cytotoxicity assay, SKOV-3; assay type: cell-based; conditions: for IC50: Homo sapiens, SK-OV-3, 72 h, six concentrations, mean ± SD of three independent experiments; for IC50 / cytotoxic activity against SKOV-3 cell line (in words): MTT
Experimental: as §1, §2

Which IC50 ([1]; MTT) does the source give for `CO[C@@H]1C[C@@]2(C)[C@@H](CC[C@]3(C)[C@@H]2CC=C2[C@@H]4[C@@H](C)[C@H](C)CC[C@]4(C(=O)NCc4ccccc4)CC[C@]23C)[C@](C)(C=O)C1=O` [Compound 5, α-Methoxy-3,23-Dioxo-Urs-12-Ene-28-Benzylamide] here?
The IC50 was 26 ± 6.68 µM.

What about the IC50 [2] of the same compound?
Its IC50 is > 100 µM.

`CO[C@@H]1C[C@]2(C)[C@H]3CC=C4[C@@H]5[C@@H](C)[C@H](C)CC[C@]5(C(=O)NCc5ccccc5)CC[C@@]4(C)[C@]3(C)CC[C@H]2[C@](C)(C=O)[C@H]1O` [Compound 6, α-Methoxy-3β-Hydroxy-23-Oxo-Urs-12-Ene-28-Benzylamide] was tested. Which IC50 ([1]; MTT) did it give?
The IC50 was 8.46 ± 1.64 µM.

Which results are given for `CO[C@@H]1C[C@@]2(C)[C@@H](CC[C@]3(C)[C@@H]2CC=C2[C@@H]4[C@@H](C)[C@H](C)CC[C@]4(C(=O)NCc4ccccc4)CC[C@]23C)[C@](C)(C(=O)O)[C@H]1O` [Compound 7, α-Methoxy-3β-Hydroxy-Urs-12-Ene-28-Benzylamide-23-Oic Acid]?
IC50 ([1]; MTT): 16.7 ± 1.68 µM; IC50 [2]: 31.9 ± 2.59 µM

With `COC(=O)[C@@]1(C)[C@@H]2CC[C@]3(C)[C@H](CC=C4[C@@H]5[C@@H](C)[C@H](C)CC[C@]5(C(=O)NCc5ccccc5)CC[C@]43C)[C@@]2(C)C[C@@H](OC)[C@@H]1O` [Compound 9, α-Methoxy-3β-Hydroxy-Urs-12-Ene-28-Benzylamide-23-Methyl Ester] as the compound, how does the IC50 ([1]; MTT) read?
Its IC50 is 3.07 ± 1.48 µM.

What about the “fold more active than AA against HCT116 cell line” value ([1]; relative to AA) of the same compound?
Its value is 8 fold.

And the IC50 [2]?
Its IC50 is 6.81 ± 3.87 µM.

What about the “fold more active than AA against SKOV-3 cell line” value ([2]; relative to AA) of the same compound?
Its value is 3 fold.

For `COC(=O)[C@]1(C)C(=O)[C@H](OC)C[C@]2(C)[C@H]3CC=C4[C@@H]5[C@@H](C)[C@H](C)CC[C@]5(C(=O)NCc5ccccc5)CC[C@@]4(C)[C@]3(C)CC[C@@H]12` [Compound 11, α-Methoxy-3-Oxo-Urs-12-Ene-28-Benzyl Amide-23-Methyl Ester], which IC50 ([1]; MTT) is on record?
The IC50 was > 100 µM.

And the “cytotoxic activity against HCT116 cell line (in words)” value ([1]; MTT)?
Its value is “lost activity”.

What about the IC50 [2] of the same compound?
Its IC50 is > 100 µM.

What about the “cytotoxic activity against SKOV-3 cell line (in words)” value [2] of the same compound?
Its value is “lost activity”.

For `CO[C@@H]1C[C@]2(C)[C@H]3CC=C4[C@@H]5[C@@H](C)[C@H](C)CC[C@]5(C(=O)NCc5ccccc5)CC[C@@]4(C)[C@]3(C)CC[C@H]2[C@](C)(C=O)[C@H]1OC(C)=O` [Compound 12, α-Methoxy-3β-Acetoxy-23-Oxo-Urs-12-Ene-28-Benzyl Amide], which IC50 ([1]; MTT) is on record?
Its IC50 is 6.69 ± 1.15 µM.

What about the IC50 [2] of the same compound?
Its IC50 is > 100 µM.

Which IC50 ([1]; MTT) does the source give for `CO[C@@H]1C[C@@]2(C)[C@@H](CC[C@]3(C)[C@@H]2CC=C2[C@@H]4[C@@H](C)[C@H](C)CC[C@]4(C(=O)NCc4ccccc4)CC[C@]23C)[C@](C)(C(N)=O)[C@H]1O` [Compound 13a, α-Methoxy-3β-Hydroxy-Urs-12-Ene-28-Benzyl Amide-23-Amide] here?
The IC50 was 7.45 ± 1.62 µM.

For `CNC(=O)[C@@]1(C)[C@@H]2CC[C@]3(C)[C@H](CC=C4[C@@H]5[C@@H](C)[C@H](C)CC[C@]5(C(=O)NCc5ccccc5)CC[C@]43C)[C@@]2(C)C[C@@H](OC)[C@@H]1O` [Compound 13b, α-Methoxy-3β-Hydroxy-Urs-12-Ene-28-Benzyl Amide-23-Methylamide], which IC50 ([1]; MTT) is on record?
Its IC50 is 7.45 ± 3.53 µM.

For `CCNC(=O)[C@@]1(C)[C@@H]2CC[C@]3(C)[C@H](CC=C4[C@@H]5[C@@H](C)[C@H](C)CC[C@]5(C(=O)NCc5ccccc5)CC[C@]43C)[C@@]2(C)C[C@@H](OC)[C@@H]1O` [Compound 13c, α-Methoxy-3β-Hydroxy-Urs-12-Ene-28-Benzyl Amide-23-Ethylamide], which IC50 ([1]; MTT) is on record?
Its IC50 is 11 ± 4.28 µM.

`CO[C@@H]1C[C@@]2(C)[C@@H](CC[C@]3(C)[C@@H]2CC=C2[C@@H]4[C@@H](C)[C@H](C)CC[C@]4(C(=O)NCc4ccccc4)CC[C@]23C)[C@](C)(C(=O)NC(C)C)[C@H]1O` [Compound 13d, α-Methoxy-3β-Hydroxy-Urs-12-Ene-28-Benzyl Amide-23-Isopropylamide] was tested. Which IC50 ([1]; MTT) did it give?
Its IC50 is 8.57 ± 3.04 µM.

Which IC50 ([1]; MTT) does the source give for `C#CCNC(=O)[C@@]1(C)[C@@H]2CC[C@]3(C)[C@H](CC=C4[C@@H]5[C@@H](C)[C@H](C)CC[C@]5(C(=O)NCc5ccccc5)CC[C@]43C)[C@@]2(C)C[C@@H](OC)[C@@H]1O` [Compound 13e, α-Methoxy-3β-Hydroxy-Urs-12-Ene-28-Benzyl Amide-23-Propargylamide] here?
The IC50 was 8.03 ± 2.79 µM.

And the IC50 [2]?
Its IC50 is 6.72 ± 4.32 µM.

With `COC(=O)C(C)NC(=O)C1(C)C(O)C(OC)CC2(C)C1CCC1(C)C2CC=C2C3C(C)C(C)CCC3(C(=O)NCc3ccccc3)CCC21C` [Compound 13f, N-(2α-Methoxy-3β-Hydroxy-Urs-12-Ene-28-Benzylamide-23-Oyl)-L-Alanine Methyl Ester] as the compound, how does the IC50 ([1]; MTT) read?
Its IC50 is 4.35 ± 1.05 µM.

What about the IC50 [2] of the same compound?
The IC50 was 3.09 ± 1.54 µM.

How did the IC50 ([1]; MTT) turn out when `COC(=O)C(NC(=O)C1(C)C(O)C(OC)CC2(C)C1CCC1(C)C2CC=C2C3C(C)C(C)CCC3(C(=O)NCc3ccccc3)CCC21C)C(C)C` [Compound 13g, N-(2α-Methoxy-3β-Hydroxy-Urs-12-Ene-28-Benzylamide-23-Oyl)-L-Valine Methyl Ester] was run?
Its IC50 is 9.69 ± 1.64 µM.

Which IC50 ([1]; MTT) does the source give for `COC(=O)C(Cc1ccccc1)NC(=O)C1(C)C(O)C(OC)CC2(C)C1CCC1(C)C2CC=C2C3C(C)C(C)CCC3(C(=O)NCc3ccccc3)CCC21C` [Compound 13h, N-(2α-Methoxy-3β-Hydroxy-Urs-12-Ene-28-Benzylamide-23-oyl)-L-Phenylalanine Methyl Ester] here?
The IC50 was > 50 µM.

What about the IC50 [2] of the same compound?
Its IC50 is > 100 µM.

What about the “cytotoxic activity against SKOV-3 cell line (in words)” value [2] of the same compound?
Its value is “not active”.

`CCOC(=O)CCCNC(=O)[C@@]1(C)[C@@H]2CC[C@]3(C)[C@H](CC=C4[C@@H]5[C@@H](C)[C@H](C)CC[C@]5(C(=O)NCc5ccccc5)CC[C@]43C)[C@@]2(C)C[C@@H](OC)[C@@H]1O` [Compound 13i, N-(2α-Methoxy-3β-Hydroxy-Urs-12-Ene-28-Benzylamide-23-Oyl)-4-Aminobutyric Ethyl Ester] was tested. Which IC50 ([1]; MTT) did it give?
The IC50 was 15.2 ± 1.99 µM.

With `CO[C@@H]1C[C@@]2(C)[C@@H](CC[C@]3(C)[C@@H]2CC=C2[C@@H]4[C@@H](C)[C@H](C)CC[C@]4(C(=O)NCc4ccccc4)CC[C@]23C)[C@](C)(C(=O)N(C)C)[C@H]1O` [Compound 13j, α-Methoxy-3β-Hydroxy-Urs-12-Ene-28-Benzyl Amide-23-Dimethylamide] as the compound, how does the IC50 ([1]; MTT) read?
The IC50 was 9.6 ± 4.58 µM.

Which IC50 ([1]; MTT) does the source give for `CO[C@@H]1C[C@@]2(C)[C@@H](CC[C@]3(C)[C@@H]2CC=C2[C@@H]4[C@@H](C)[C@H](C)CC[C@]4(C(=O)NCc4ccccc4)CC[C@]23C)[C@](C)(C(N)=O)[C@H]1OC(C)=O` [Compound 14a, α-Methoxy-3β-Acetoxy-Urs-12-Ene-28-Benzyl Amide-23-Amide] here?
The IC50 was 6.52 ± 3.03 µM.

What about the IC50 [2] of the same compound?
Its IC50 is 7.12 ± 2.61 µM.

`CNC(=O)[C@@]1(C)[C@@H]2CC[C@]3(C)[C@H](CC=C4[C@@H]5[C@@H](C)[C@H](C)CC[C@]5(C(=O)NCc5ccccc5)CC[C@]43C)[C@@]2(C)C[C@@H](OC)[C@@H]1OC(C)=O` [Compound 14b, α-Methoxy-3β-Acetoxy-Urs-12-Ene-28-Benzyl Amide-23-Methylamide] was tested. Which IC50 ([1]; MTT) did it give?
The IC50 was 34.2 ± 7.87 µM.

Which results are given for `CCNC(=O)[C@@]1(C)[C@@H]2CC[C@]3(C)[C@H](CC=C4[C@@H]5[C@@H](C)[C@H](C)CC[C@]5(C(=O)NCc5ccccc5)CC[C@]43C)[C@@]2(C)C[C@@H](OC)[C@@H]1OC(C)=O` [Compound 14c, α-Methoxy-3β-Acetoxy-Urs-12-Ene-28-Benzyl Amide-23-Ethylamide]?
IC50 ([1]; MTT): > 100 µM; IC50 [2]: > 100 µM

For `CO[C@@H]1C[C@@]2(C)[C@@H](CC[C@]3(C)[C@@H]2CC=C2[C@@H]4[C@@H](C)[C@H](C)CC[C@]4(C(=O)NCc4ccccc4)CC[C@]23C)[C@](C)(C(=O)NC(C)C)[C@H]1OC(C)=O` [Compound 14d, α-Methoxy-3β-Acetoxy-Urs-12-Ene-28-Benzyl Amide-23-Isopropylamide], which IC50 ([1]; MTT) is on record?
The IC50 was > 100 µM.

And the IC50 [2]?
The IC50 was > 100 µM.

For `C#CCNC(=O)[C@@]1(C)[C@@H]2CC[C@]3(C)[C@H](CC=C4[C@@H]5[C@@H](C)[C@H](C)CC[C@]5(C(=O)NCc5ccccc5)CC[C@]43C)[C@@]2(C)C[C@@H](OC)[C@@H]1OC(C)=O` [Compound 14e, α-Methoxy-3β-Acetoxy-Urs-12-Ene-28-Benzyl Amide-23-Propargylamide], which IC50 ([1]; MTT) is on record?
Its IC50 is > 100 µM.

And the IC50 [2]?
The IC50 was > 100 µM.

Which IC50 ([1]; MTT) does the source give for `COC(=O)C(C)NC(=O)C1(C)C(OC(C)=O)C(OC)CC2(C)C1CCC1(C)C2CC=C2C3C(C)C(C)CCC3(C(=O)NCc3ccccc3)CCC21C` [Compound 14f, N-(2α-Methoxy-3β-Acetoxy-Urs-12-Ene-28-Benzylamide-23-oyl)-L-Alanine Methyl Ester] here?
The IC50 was > 50 µM.

What about the IC50 [2] of the same compound?
The IC50 was > 100 µM.

`COC(=O)C(NC(=O)C1(C)C(OC(C)=O)C(OC)CC2(C)C1CCC1(C)C2CC=C2C3C(C)C(C)CCC3(C(=O)NCc3ccccc3)CCC21C)C(C)C` [Compound 14g, N-(2α-Methoxy-3β-Acetoxy-Urs-12-Ene-28-Benzylamide-23-Oyl)-L-Valine Methyl Ester] was tested. Which IC50 ([1]; MTT) did it give?
Its IC50 is > 100 µM.

And the IC50 [2]?
Its IC50 is > 100 µM.

With `COC(=O)C(Cc1ccccc1)NC(=O)C1(C)C(OC(C)=O)C(OC)CC2(C)C1CCC1(C)C2CC=C2C3C(C)C(C)CCC3(C(=O)NCc3ccccc3)CCC21C` [Compound 14h, N-(2α-Methoxy-3β-Acetoxy-Urs-12-Ene-28-Benzylamide-23-Oyl)-L-Phenylalanine Methyl Ester] as the compound, how does the IC50 ([1]; MTT) read?
Its IC50 is > 100 µM.

What about the IC50 [2] of the same compound?
Its IC50 is > 100 µM.
